# In the METLIN SMRT retention time set (Domingo-Almenara et al. 2019):
# Test: gradient 5% acetonitrile 3 min, to 50% in 2 min, to 85% in 15 min, held 3 min, 100 µL/min
# Conditions: column: Zorbax Extend-C18 2.1 x 50 mm; eluents: water / acetonitrile, 0.1% formic acid
# Procedure, shortened: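 Using water and acetonitrile that each contained 0.1% formic acid, mixtures of ~100 pure standards were separated at 100 μL/min on a Zorbax Extend-C18 column (2.1 × 50 mm, 1.8 μm). The HPLC fed a quadrupole time-of-flight mass spectrometer working in positive and negative ionization mode, with dead and dwell volumes of 40 μL and 900 μL. Data were acquired over 3 months. Retention time was read from computationally picked adduct peaks after manual inspection of each.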
row,RP-LC retention time [s],Structure (SMILES)
1,767,Cc1nnc(-c2cccn2CC(=O)NCc2cccc(Br)c2)o1
2,603,CCn1cc(CN(Cc2c(C)nn(C)c2C)C(=O)C2CCN(c3cnn(C)c(=O)c3)C2)cn1 (configuration not stated)
3,743,CCCCNC(=O)CN1C(=O)C2CCCCN2c2ccc(C(=O)N3CCCC3)cc21 (configuration not stated)
4,695,CC(C)N1C(=O)c2cccnc2Sc2cc(C(=O)NCC3CCCO3)ccc21 (configuration not stated)
5,806,CCc1onc(C)c1C1CCCN1C(=O)Nc1ccc(C(=O)OC)cc1 (configuration not stated)
6,742,O=C(NCc1csc(C2CCN(C(=O)c3ccc(F)c(F)c3)CC2)n1)C1CCC1
7,930,N#Cc1cccc(NC(=O)N2CCCC2c2nc(-c3ccc(F)cc3F)no2)c1 (configuration not stated)
8,592,Cc1ccc2nc(NC(=O)CN3CCC(C(N)=O)CC3)sc2c1
9,668,O=C(c1ccoc1)N1CCCC(OCc2nc(-c3ccncc3)no2)C1 (configuration not stated)
10,928,CCN1C(=O)NC(c2ccccc2C(F)(F)F)C2=C1CN(CCC(=O)NCCOC)C2=O (configuration not stated)
11,1150,CCc1cc(C(=O)Nc2cc(C)ccc2F)nc2ccnn12
12,891,COc1ccc(NC(=O)c2cn(-c3cc(N4CCCC4)ncn3)cn2)c(OC)c1
13,569,CCNC(=O)C1Cn2cccc2C(=O)N1C (configuration not stated)
14,565,O=C(CSc1ncc(CO)n1CC(=O)NC1CC1)Nc1ccc(F)cc1F
15,655,Cc1cc(N(C)C)n2nc(CN3CCN(c4cccc(C)c4C)CC3)nc2n1
16,797,CCn1cnc(S(=O)(=O)N2CCC(C(=O)NCc3ccc(C)cc3)CC2)c1
17,657,CCc1nnc2ccc(NC3CC3)nn12
18,948,CCCN1C(=O)COc2ccc(-c3noc(C4CC(=O)N(c5ccccc5)C4)n3)cc21 (configuration not stated)

row,RP-LC retention time [s],Structure (SMILES)
1,898,CCCc1cc(C2CCCN2C(=O)c2c(OC)cccc2OC)no1 (configuration not stated)
2,684,NC(=O)C1CCN(C(=O)Cc2csc(NC(=O)Nc3ccc(Cl)cc3)n2)CC1
3,905,COc1ccc(-c2ccnc3nc(-c4cccs4)nn23)c(F)c1
4,614,Cc1cccc2nnc(N3CCCC(C(=O)N4CCN(c5ccccc5)CC4)C3)n12 (configuration not stated)
5,894,CCc1nn(CC(=O)NCCc2c[nH]c3ccccc23)c(=O)c2cc3sc(C)cc3n12
6,613,Cc1cccc(Nc2cc(C)nc3ccnn23)c1
7,742,O=C(NCC1CCOCC1)c1ccc2[nH]ccc2c1
8,781,CCCCNC(=O)CCCN1C(=O)CCn2nc(-c3cn(C)c4ccccc34)cc21
9,680,O=C(CCC1CCN(c2cc(NC3CC3)ncn2)CC1)NCc1ccc(Cl)cc1
10,902,CCOCCCNC(=O)C1CCCN(c2ncc(-c3cccc(F)c3)cn2)C1 (configuration not stated)
11,1000,CCn1c(=O)sc2cc(S(=O)(=O)N3CCC(C(=O)NCc4cccc(OC)c4)CC3)ccc21
12,756,CC1CCc2nc3ncn(CC(=O)NCCc4ccc(Cl)cc4)c(=O)c3cc2C1 (configuration not stated)
13,857,CCOc1ccccc1NC(=O)Cn1cccc(S(=O)(=O)N2CCC(C)CC2)c1=O
14,637,CC(C)CN1CCN(S(=O)(=O)c2ccc(-c3nnc(C4CC4)o3)o2)CC1
15,711,O=C(Cc1cccs1)N1CCC[C@H]1c1nc(-c2ccccc2)n[nH]1
16,858,CCOc1cccc(CNc2nccc(-n3nc(C)cc3C)n2)c1
17,661,Cn1cc(C(=O)NCc2nc(-c3ccccc3)no2)nn1

# The remaining lines, values behind:
row,Structure (SMILES),RP-LC retention time [s]
1,Cc1noc2nc(C)n(CC(=O)Nc3ccc(F)cc3F)c(=O)c12,767
2,O=C(NCc1nnc(SCc2c(F)cccc2Cl)o1)c1cccc(C(F)(F)F)c1,933
3,COc1ccc(NS(=O)(=O)c2cc3n(c2)CCN(C(C)C)C3=O)cc1,717
4,CCN1CCN(c2cc(C(=O)O)c3cc(NS(=O)(=O)c4ccc(C(C)C)cc4)ccc3n2)CC1,724
5,CC1CCN(c2cc3c(cc2NC(=O)c2ccco2)n(C)c(=O)c(=O)n3C)CC1,632
6,CN(C)c1ccc(-c2noc(-c3nc(-c4ccccc4F)no3)n2)cc1,1250
7,COc1cc(OC)c(NC(=O)N2CCc3cn(C)c4cccc(c34)C2)cc1Cl,887
8,COC(=O)c1ccc2nc(NC(=O)c3ccccc3S(C)(=O)=O)sc2c1,744
9,CCOC(=O)Cn1c(=O)c2c(nc3n2CC(C)CN3CCc2ccccc2)n(C)c1=O (configuration not stated),985
10,CN(C)S(=O)(=O)c1cccc(-c2nnc(-c3ccc(Cl)cc3)o2)c1,1000
11,CCN1C(=O)COc2ccc(-c3noc(-c4ccccc4C(F)(F)F)n3)cc21,1140
12,Cc1cccc(-n2c(=O)c3sccc3n(Cc3nc(-c4ccc(C(C)(C)C)cc4)no3)c2=O)c1,1260
13,COCCNC(=O)C1(c2ccc(NC(=O)c3cccs3)cc2)CC1,730
14,COc1ccc(N2C=C(C(=O)N3CCOCC3)S(=O)(=O)c3ccc(Cl)cc32)cc1,770
15,CC1(C(=O)NCc2ccccc2)CN(S(=O)(=O)c2ccccc2)CC(=O)N1CCC1=CCCCC1 (configuration not stated),1090
16,CCC(=O)N1c2ccc(S(=O)(=O)N3CCCCC3)cc2CC1C(=O)NCc1ccc(Cl)cc1 (configuration not stated),924
17,COc1cccc(C2CC(c3ccc(F)cc3)=NC3(CCN(C(C)=O)CC3)N2)c1O (configuration not stated),656
18,Cc1cc2c(cc1S(=O)(=O)N1CCCC1C(=O)Nc1cccc(Cl)c1C)OC(C)C(=O)N2 (configuration not stated),891
19,CCCN(CC1CC1)C(=O)CCC[C@@H]1[C@H]2CCCN3CCC[C@@H](CN1C(C)=O)[C@@H]23,618
20,CC1(C(=O)NCc2ccccc2)CN(S(=O)(=O)c2ccccc2)CC(=O)N1c1ccc(F)cc1 (configuration not stated),914
21,O=C(NCc1cccs1)c1c(O)c2cccnc2n(Cc2ccccc2)c1=O,1310
22,O=C(Nc1ccc(-n2cnc(C(=O)N3CCC4(CC3)OCCO4)c2)nc1)C1CC1,631
23,CCC(C)N(CC(=O)N1CCc2sccc2C1COc1ccccc1OC)C(=O)COC (configuration not stated),845
24,Cc1sc(-c2cc(C(F)(F)F)on2)cc1S(=O)(=O)NCc1ccc(F)cc1,1160
25,CC(C)OCCCNC(=O)c1c2c(cn(-c3ccc(F)cc3)c1=O)C(=O)CC(C)(C)C2,885
26,CC1=C(c2ccc(F)cc2)S(=O)(=O)N=C1N1CCCN(C(=O)c2cccnc2)CC1,713

row,Structure (SMILES),RP-LC retention time [s]
1,CCOc1ccc(N2CCCCn3c2nc2c3c(=O)n(CC)c(=O)n2C)cc1,902
2,CCCCCn1c(=O)c2ccccc2n(Cc2nc(-c3cc(OC)cc(OC)c3)no2)c1=O,1270
3,COc1ccc(NC(=O)c2[nH]c3cc(C)sc3c2CN2CCCC2)c(C)c1,708
4,O=C(NCC1(N2CCOCC2)CCOC1)Nc1cc(F)ccc1F (configuration not stated),592
5,CS(=O)(=O)Nc1ccc(C2(C(=O)N3CCN(c4ccccc4)CC3)CCCCC2)cc1,674
6,O=C([C@@H]1C[C@H](Oc2ccccc2)CN1C(=O)C1CC=CC1)N1CCCC1,759
7,C=CCN1C(=O)C(C)(C)COc2cc(NC(=O)c3cccc(OC)c3OC)ccc21,943
8,COc1ccc(Cn2c(=O)c3sccc3n(Cc3nc(-c4ccc(SC)cc4)no3)c2=O)cc1,1160
9,Cc1ccc(F)c(NS(=O)(=O)c2ccc3c(c2)C(=O)N(C)c2ncccc2O3)c1,924
10,Cc1ccc(S(=O)(=O)n2ccn(C(=O)C(C)Oc3ccccc3)c2=O)cc1 (configuration not stated),712
11,O=c1c2cc3c(cc2nc(SCc2nc(-c4cccc(F)c4)no2)n1CC1CCCO1)OCO3 (configuration not stated),1110
12,C=CCN1C(=O)COc2ccc(-c3csc(NC(=O)/C=C/c4ccc(OCC)c(OC)c4)n3)cc21,1050
13,Cc1ccc(-c2nc3cnccn3c2NCCC(=O)N(C)C)cc1,622
14,O=C(CC(c1cccs1)n1cccc1)N1CCN(c2ccccn2)CC1 (configuration not stated),659
15,CCC(C)NC(=O)c1cn(-c2ncccc2-c2nc(-c3ccccc3)no2)cn1 (configuration not stated),858
16,Cc1ccc2c(=O)c(C(=O)N3CCCC3)cn(CC(=O)Nc3ccc(F)c(F)c3)c2n1,720
17,Cc1ccc(CN2CC(=O)N(c3cccc(Cl)c3)[C@@H]3CS(=O)(=O)C[C@@H]32)cc1,917
18,CC(C)c1ccc(CN2C[C@@H]3C(=O)N(CCc4ccccc4)C(=O)[C@@H]3C2)cc1,772
19,Cc1ccc(NS(=O)(=O)c2cc3n(c2)CCN(C(C)C)C3=O)c(F)c1,765
20,COc1ccc(-c2nc(N(CC(C)C)CC(C)C)c3ccccc3n2)cc1,1020
21,COc1ccc(-c2cc(C(=O)N3CCN(S(=O)(=O)c4ccc(C)cc4C)CC3)[nH]n2)cc1,924
22,O=NN(CCCl)C(=O)NCc1ccc[n+]([O-])c1,587
23,COCCCNC(=O)c1ccc2c(c1)nc(C)n2-c1ccc(Br)cc1,629
24,CCOc1cccc(-c2noc(Cn3c(=O)n(CC)c(=O)c4ccccc43)n2)c1,983
25,CC(C)OCCCNCc1ccc2c(c1)n(C)c(=O)n2C,592
26,CC(C)(C)c1csc(-c2csc(S(=O)(=O)N3CCCCCC3)c2)n1,1340
